# Patent publication US20230374017A1, “COMPOSITIONS AND METHODS FOR ACTIVATING PYRUVATE KINASE” (The Regents of the University of Michigan, priority 2020, published 2023)
# Key:
# [1] = target: T1, pyruvate kinase activity, 661W cell line (Mus musculus, UniProt P52480); assay: Pyruvate kinase activity in 661W cell lysates after 2 hours treatment; format: cell-based; details: 661W cells, 2 hours incubation, activity normalized to total protein; for Emax: read-out: Max Activation (cell)
# T1 construct: endogenous in cells; host or cells: 661W cell line
# T1 sequence (P52480 whole entry): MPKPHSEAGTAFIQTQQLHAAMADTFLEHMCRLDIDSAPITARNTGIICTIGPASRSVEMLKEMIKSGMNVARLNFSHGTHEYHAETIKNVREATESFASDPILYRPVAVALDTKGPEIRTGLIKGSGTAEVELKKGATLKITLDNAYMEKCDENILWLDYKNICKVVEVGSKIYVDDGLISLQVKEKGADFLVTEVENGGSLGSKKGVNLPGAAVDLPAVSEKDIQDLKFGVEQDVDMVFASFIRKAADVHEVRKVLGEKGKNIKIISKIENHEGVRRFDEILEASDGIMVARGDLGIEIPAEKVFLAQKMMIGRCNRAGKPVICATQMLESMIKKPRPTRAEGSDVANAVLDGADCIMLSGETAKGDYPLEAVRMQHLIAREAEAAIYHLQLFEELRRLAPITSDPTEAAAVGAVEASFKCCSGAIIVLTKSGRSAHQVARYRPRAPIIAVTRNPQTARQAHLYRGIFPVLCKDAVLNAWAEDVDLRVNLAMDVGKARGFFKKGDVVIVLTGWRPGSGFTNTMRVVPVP
# Description: Cell culture. For 661W cell line experiments, media was replaced prior to the start of treatment with DMSO or ML-265. Cells were incubated with DMSO or different concentrations of ML-265 for 2 hours. Cells were lysed and homogenized in RIPA Lysis and Extraction Buffer (Catalog number: 89900, Life Technologies Corporation, Grand Island, NY) with protease inhibitors (Complete-Mini, Roche Diagnostics, Indianapolis, IN) and cellular debris was removed by centrifugation at 10,000 rpm for 10 minutes. Ten microliters of the supernatant was used to assess pyruvate kinase activity, and the activity was normalized to total protein content as previously described.
# [2] = target: T2, human recombinant PKM2 (Homo sapiens, UniProt P14618); assay: Pyruvate kinase activity enzyme assay, recombinant enzyme (LDH-coupled, NADH depletion at 340 nm); format: biochemical; details: normalized to DMSO-treated PKM2 activity; for EC50: recombinant PKM2 20 nM; for Max Activation / Emax: recombinant PKM2; for Emax: read-out: Max Activation
# T2 construct: purchased Sigma SAE0021
# T2 sequence (P14618 whole entry): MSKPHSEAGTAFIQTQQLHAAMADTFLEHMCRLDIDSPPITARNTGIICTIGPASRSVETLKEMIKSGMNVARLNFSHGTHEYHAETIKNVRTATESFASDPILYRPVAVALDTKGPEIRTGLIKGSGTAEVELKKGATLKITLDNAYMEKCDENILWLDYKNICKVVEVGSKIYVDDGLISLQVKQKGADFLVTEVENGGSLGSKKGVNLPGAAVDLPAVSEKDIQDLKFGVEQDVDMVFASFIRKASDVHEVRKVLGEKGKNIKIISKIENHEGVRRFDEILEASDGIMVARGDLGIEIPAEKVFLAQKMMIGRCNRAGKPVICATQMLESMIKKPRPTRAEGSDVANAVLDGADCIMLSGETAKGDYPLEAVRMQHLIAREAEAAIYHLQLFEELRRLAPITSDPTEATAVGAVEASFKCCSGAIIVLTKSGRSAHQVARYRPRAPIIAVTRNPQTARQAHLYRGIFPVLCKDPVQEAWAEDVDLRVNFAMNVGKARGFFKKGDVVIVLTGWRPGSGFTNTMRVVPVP
# Description: Pyruvate Kinase Activity Enzyme Assay. Recombinant Enzyme. A continuous, enzyme-coupled assay, which uses lactate dehydrogenase (LDH) and measures the depletion of NADH via absorbance at 340 nm was utilized to determine the pyruvate kinase activity. For AC50 measurements (concentration of activator necessary to achieve half-maximal activation) with ML-265, assays were performed in 96-well format using 200 μL/well assay volume with final concentrations of 20 nM human recombinant PKM2 (Sigma, SAE0021), differing concentrations of ML-265, 0.5 mM PEP, 1 mM ADP, 0.2 mM NADH, and 8 U of lactate dehydrogenase (LDH) in an assay buffer of 50 mM Tris-HCl (pH 7.4), 100 mM KCl, and 5 mM MgCl2. The decrease in absorbance at 340 nm was monitored using a SPECTROstar Omega plate reader (BMG LABTECH Inc., Cary, NC, USA). Initial velocities were calculated with the MARS software. Data were normalized to DMSO (dimethyl sulfoxide)-treated PKM2 activity.
EC50 [1] [nM],Max Activation (cell) [1] [%],EC50 [2] [nM],Max Activation [2] [%],Emax [1] [%],Emax [2] [%],Compound
15,,117,,431,212,"Cc1ccc2c3cnn(Cc4ccccc4)c(=O)c3n(C)c2c1 [Example 1, 3-Benzyl-5,7-dimethyl-3,5-dihydro-4H-pyridazino[4,5-b]indol-4-one]"
,,106,,,90,"COc1ccc(Cn2ncc3c4ccc(C)cc4n(C)c3c2=O)cc1 [Example 2, 3-(4-Methoxybenzyl)-5,7-dimethyl-3,5-dihydro-4H-pyridazino[4,5-b]indol-4-one]"
28,,428,,310,193,"Cc1ccc2c3cnn(Cc4cccc(N)c4)c(=O)c3n(C)c2c1 [Example 3, 3-(3-Aminobenzyl)-5,7-dimethyl-3,5-dihydro-4H-pyridazino[4,5-b]indol-4-one]"
22,,527,,309,267,"CSc1ccc2c3cnn(Cc4ccccc4)c(=O)c3n(C)c2c1 [Example 4, 3-Benzyl-5-methyl-7-(methylthio)-3,5-dihydro-4H-pyridazino[4,5-b]indol-4-one]"
13,,192,,295,226,"Cn1c2cc([S+](C)[O-])ccc2c2cnn(Cc3ccccc3)c(=O)c21 (stereo not shown) [Example 5, 3-Benzyl-5-methyl-7-(methylsulfinyl)-3,5-dihydro-4H-pyridazino[4,5-b]indol-4-one]"
18,,63,,355,222,"Cn1c2cc([S+](C)[O-])ccc2c2cnn(Cc3cccc(N)c3)c(=O)c21 (stereo not shown) [Example 7, 3-(3-Aminobenzyl)-5-methyl-7-(methylsulfinyl)-3,5-dihydro-4H-pyridazino[4,5-b]indol-4-one]"
25,,117,,324,271,"COc1ccc2c3cnn(Cc4cccc(N)c4)c(=O)c3n(C)c2c1 [Example 8, 3-(3-Aminobenzyl)-7-methoxy-5-methyl-3,5-dihydro-4H-pyridazino[4,5-b]indol-4-one]"
,,110,,,170,"COc1ccc2c3cnn(Cc4cn5ccccc5n4)c(=O)c3n(C)c2c1 [Example 11, 3-(Imidazo[1,2-a]pyridin-2-ylmethyl)-7-methoxy-5-methyl-3,5-dihydro-4H-pyridazino[4,5-b]indol-4-one]"
,,131,,,123,"COc1ccc2c3cnn(Cc4ccc5ncccc5c4)c(=O)c3n(C)c2c1 [Example 12, 7-Methoxy-5-methyl-3-(quinolin-6-ylmethyl)-3,5-dihydro-4H-pyridazino[4,5-b]indol-4-one]"
124,,40,,296,254,"Cn1c2cc(O)ccc2c2cnn(Cc3cccc(N)c3)c(=O)c21 [Example 15, 3-(3-Aminobenzyl)-7-hydroxy-5-methyl-3,5-dihydro-4H-pyridazino[4,5-b]indol-4-one]"
58,,40,,279,231,"Cc1cc2c3cnn(Cc4ccccc4F)c(=O)c3n(C)c2s1 [Example 16, 6-(2-Fluorobenzyl)-2,8-dimethyl-6,8-dihydro-7H-thieno[3′,2′:4,5]pyrrolo[2,3-d]pyridazin-7-one]"
23,,41,,292,264,"Cc1ccc2c3cnn(Cc4cccc(F)c4)c(=O)c3n(C)c2n1 [Example 18, 7-(3-fluorobenzyl)-2,9-dimethyl-7,9-dihydro-8H-pyrido[3′,2′:4,5]pyrrolo[2,3-d]pyridazin-8-one]"
67,,15,,229,199,"COc1cc2c(cc1F)c1cnn(Cc3cccc(N)c3)c(=O)c1n2C [Example 20, 3-(3-aminobenzyl)-8-fluoro-7-methoxy-5-methyl-3,5-dihydro-4H-pyridazino[4,5-b]indol-4-one]"
75,,25,,273,299,"Cn1c2cc(O)c(F)cc2c2cnn(Cc3cccc(N)c3)c(=O)c21 [Example 21, 3-(3-aminobenzyl)-8-fluoro-7-hydroxy-5-methyl-3,5-dihydro-4H-pyridazino[4,5-b]indol-4-one]"
33,,22,,288,196,"COc1cccc2c3cnn(Cc4cccc(N)c4)c(=O)c3n(C)c12 [Example 23, 3-(3-aminobenzyl)-6-methoxy-5-methyl-3,5-dihydro-4H-pyridazino[4,5-b]indol-4-one]"
,,26,,,307,"COc1ccc2c(c1)c1cnn(Cc3cccc(N)c3)c(=O)c1n2C [Example 27, 3-(3-aminobenzyl)-8-methoxy-5-methyl-3,5-dihydro-4H-pyridazino[4,5-b]indol-4-one]"
66,,97,,305,225,"COc1cc2c(cc1F)c1cnn(Cc3cccc(C)n3)c(=O)c1n2C [Example 52, 8-fluoro-7-methoxy-5-methyl-3-((6-methylpyridin-2-yl)methyl)-3,5-dihydro-4H-pyridazino[4,5-b]indol-4-one]"
37,229,15,199,,,"COc1cc2c(cc1F)c1cnn(Cc3cccc(N)c3)c(=O)c1n2C [Example 53, 3-(3-aminobenzyl)-8-fluoro-7-methoxy-5-methyl-3,5-dihydro-4H-pyridazino[4,5-b]indol-4-one]"
75,273,53,299,,,"Cn1c2cc(O)c(F)cc2c2cnn(Cc3cccc(N)c3)c(=O)c21 [Example 54, 3-(3-aminobenzyl)-8-fluoro-7-hydroxy-5-methyl-3,5-dihydro-4H-pyridazino[4,5-b]indol-4-one]"
54,,67,,334,243,"Cc1cccc(Cn2ncc3c4cc(Oc5ccc6[nH]ncc6n5)ccc4n(C)c3c2=O)n1 [Example 60, 8-((1H-pyrazolo[4,3-b]pyridin-5-yl)oxy)-5-methyl-3-((6-methylpyridin-2-yl)methyl)-3,5-dihydro-4H-pyridazino[4,5-b]indol-4-one]"
134,,82,,376,221,"Cc1cccc(Cn2ncc3c4ccc(Oc5ccc6[nH]ncc6n5)cc4n(C)c3c2=O)n1 [Example 62, 7-((1H-pyrazolo[4,3-b]pyridin-5-yl)oxy)-5-methyl-3-((6-methylpyridin-2-yl)methyl)-3,5-dihydro-4H-pyridazino[4,5-b]indol-4-one]"
78,,31,,302,219,"Cc1cccc(Cn2ncc3c4ccc(Oc5cccc(O)n5)cc4n(C)c3c2=O)n1 [Example 63, 7-((6-hydroxypyridin-2-yl)oxy)-5-methyl-3-((6-methylpyridin-2-yl)methyl)-3,5-dihydro-4H-pyridazino[4,5-b]indol-4-one]"
73,,69,,272,165,"Cc1cccc(Cn2ncc3c4ccc(Oc5nccc6[nH]ncc56)cc4n(C)c3c2=O)n1 [Example 64, 7-((1H-pyrazolo[4,3-c]pyridin-4-yl)oxy)-5-methyl-3-((6-methylpyridin-2-yl)methyl)-3,5-dihydro-4H-pyridazino[4,5-b]indol-4-one]"
115,,43,,262,191,"Cc1cccc(Cn2ncc3c4ccc(Oc5ncnc6[nH]ncc56)cc4n(C)c3c2=O)n1 [Example 65, 7-((1H-pyrazolo[3,4-d]pyrimidin-4-yl)oxy)-5-methyl-3-((6-methylpyridin-2-yl)methyl)-3,5-dihydro-4H-pyridazino[4,5-b]indol-4-one]"
121,,36,,323,154,"Cc1cccc(Cn2ncc3c4ccc(Oc5cccc(F)n5)cc4n(C)c3c2=O)n1 [Example 66, 7-((6-fluoropyridin-2-yl)oxy)-5-methyl-3-((6-methylpyridin-2-yl)methyl)-3,5-dihydro-4H-pyridazino[4,5-b]indol-4-one]"
147,,49,,290,277,"Cc1cccc(Cn2ncc3c4ccc(Oc5cccc(Cl)n5)cc4n(C)c3c2=O)n1 [Example 67, 7-((6-chloropyridin-2-yl)oxy)-5-methyl-3-((6-methylpyridin-2-yl)methyl)-3,5-dihydro-4H-pyridazino[4,5-b]indol-4-one]"

Compound,EC50 [1] [nM],Max Activation (cell) [1] [%],EC50 [2] [nM],Max Activation [2] [%],Emax [1] [%],Emax [2] [%]
"3-((1H-pyrazol-3-yl)methyl)-7-41H-pyrazolo[4,3-c]pyridin-4-yl)oxy)-5-methyl-3,5-dihydro-4H-pyridazino[4,5-b]indol-4-one [Example 87]",95,317,50,270,,
